What was measured:
[1] = biological target: Serine/threonine-protein kinase PAK 6 (Homo sapiens) (UniProt Q9NQU5); experiment: Selectivity interaction (Ambit KINOMEscan and KiNATiv profiling in Jurkat cells) EUB0000090b PAK6; format: cell-based; conditions: at 1 µM
[2] = biological target: Mitogen-activated protein kinase kinase kinase 1 (Homo sapiens, UniProt Q13233); experiment: Selectivity interaction (Ambit KINOMEscan and KiNATiv profiling in Jurkat cells) EUB0000090b MAP3K1; format: cell-based; conditions: at 1 µM
Mitogen-activated protein kinase kinase kinase 1, sequence (Q13233 whole entry): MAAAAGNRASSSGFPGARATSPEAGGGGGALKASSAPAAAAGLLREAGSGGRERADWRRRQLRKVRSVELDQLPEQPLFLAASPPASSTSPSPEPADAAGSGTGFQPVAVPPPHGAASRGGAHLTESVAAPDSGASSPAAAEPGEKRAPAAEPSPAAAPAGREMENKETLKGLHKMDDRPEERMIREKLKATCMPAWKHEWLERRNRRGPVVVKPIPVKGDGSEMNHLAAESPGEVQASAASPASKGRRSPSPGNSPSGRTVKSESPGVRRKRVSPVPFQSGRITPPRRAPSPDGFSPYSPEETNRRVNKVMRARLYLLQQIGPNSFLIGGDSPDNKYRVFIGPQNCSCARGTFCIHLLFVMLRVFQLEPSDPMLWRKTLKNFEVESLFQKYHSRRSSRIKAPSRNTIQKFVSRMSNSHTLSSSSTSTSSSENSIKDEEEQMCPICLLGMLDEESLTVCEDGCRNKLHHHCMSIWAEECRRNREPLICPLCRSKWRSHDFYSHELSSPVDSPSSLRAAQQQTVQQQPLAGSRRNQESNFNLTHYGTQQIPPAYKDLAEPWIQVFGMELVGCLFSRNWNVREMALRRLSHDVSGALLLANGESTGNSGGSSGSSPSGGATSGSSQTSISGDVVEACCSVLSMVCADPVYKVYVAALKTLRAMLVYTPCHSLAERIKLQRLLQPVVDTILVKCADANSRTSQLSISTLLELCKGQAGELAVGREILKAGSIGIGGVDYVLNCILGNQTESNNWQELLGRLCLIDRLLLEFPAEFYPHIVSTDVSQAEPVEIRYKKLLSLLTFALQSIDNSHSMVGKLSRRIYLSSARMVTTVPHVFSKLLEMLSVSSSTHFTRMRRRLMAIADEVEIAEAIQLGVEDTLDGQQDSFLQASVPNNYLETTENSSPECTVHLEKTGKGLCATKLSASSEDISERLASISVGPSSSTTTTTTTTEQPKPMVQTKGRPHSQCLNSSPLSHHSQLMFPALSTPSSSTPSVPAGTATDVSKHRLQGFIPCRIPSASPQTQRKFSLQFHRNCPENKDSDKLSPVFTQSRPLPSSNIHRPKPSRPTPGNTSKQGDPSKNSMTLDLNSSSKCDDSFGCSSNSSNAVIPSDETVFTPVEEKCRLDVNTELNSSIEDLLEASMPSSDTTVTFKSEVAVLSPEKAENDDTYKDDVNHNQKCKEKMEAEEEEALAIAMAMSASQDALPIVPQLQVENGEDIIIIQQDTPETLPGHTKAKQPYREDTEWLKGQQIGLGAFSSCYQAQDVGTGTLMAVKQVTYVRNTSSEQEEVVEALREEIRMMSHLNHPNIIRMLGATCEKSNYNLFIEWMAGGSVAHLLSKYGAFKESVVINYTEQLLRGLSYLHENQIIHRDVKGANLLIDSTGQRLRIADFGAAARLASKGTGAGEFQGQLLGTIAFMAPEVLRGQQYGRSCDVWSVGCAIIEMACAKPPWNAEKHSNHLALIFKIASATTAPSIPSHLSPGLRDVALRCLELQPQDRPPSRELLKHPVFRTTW

[3] = biological target: T1, Tyrosine-protein kinase ITK/TSK (Homo sapiens) (UniProt Q08881); experiment: Selectivity interaction (Kinase panel (Invitrogen)) EUB0000639a ITK; conditions: at 200 nM
T1 sequence (whole entry): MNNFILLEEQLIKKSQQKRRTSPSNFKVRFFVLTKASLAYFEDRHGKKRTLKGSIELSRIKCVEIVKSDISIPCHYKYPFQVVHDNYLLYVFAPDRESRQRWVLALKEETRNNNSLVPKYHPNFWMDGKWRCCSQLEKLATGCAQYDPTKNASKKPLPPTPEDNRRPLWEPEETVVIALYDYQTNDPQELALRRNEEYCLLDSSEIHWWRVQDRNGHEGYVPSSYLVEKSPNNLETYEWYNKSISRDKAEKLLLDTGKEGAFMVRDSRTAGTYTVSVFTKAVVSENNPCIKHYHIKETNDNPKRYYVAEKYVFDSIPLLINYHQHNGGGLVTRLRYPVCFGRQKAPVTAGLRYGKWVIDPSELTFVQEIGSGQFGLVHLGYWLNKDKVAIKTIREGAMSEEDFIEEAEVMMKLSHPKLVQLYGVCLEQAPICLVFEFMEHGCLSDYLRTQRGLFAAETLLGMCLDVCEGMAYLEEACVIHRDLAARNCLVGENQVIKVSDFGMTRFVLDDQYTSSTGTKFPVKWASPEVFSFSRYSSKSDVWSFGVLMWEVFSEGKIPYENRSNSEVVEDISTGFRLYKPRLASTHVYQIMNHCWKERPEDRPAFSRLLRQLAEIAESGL

[4] = biological target: T2, Serine/threonine-protein kinase ICK (Homo sapiens) (UniProt Q9UPZ9); experiment: Selectivity interaction (KinomeScan (DiscoverX)) EUB0000695a ICK; conditions: at 100 nM
T2 sequence (whole entry): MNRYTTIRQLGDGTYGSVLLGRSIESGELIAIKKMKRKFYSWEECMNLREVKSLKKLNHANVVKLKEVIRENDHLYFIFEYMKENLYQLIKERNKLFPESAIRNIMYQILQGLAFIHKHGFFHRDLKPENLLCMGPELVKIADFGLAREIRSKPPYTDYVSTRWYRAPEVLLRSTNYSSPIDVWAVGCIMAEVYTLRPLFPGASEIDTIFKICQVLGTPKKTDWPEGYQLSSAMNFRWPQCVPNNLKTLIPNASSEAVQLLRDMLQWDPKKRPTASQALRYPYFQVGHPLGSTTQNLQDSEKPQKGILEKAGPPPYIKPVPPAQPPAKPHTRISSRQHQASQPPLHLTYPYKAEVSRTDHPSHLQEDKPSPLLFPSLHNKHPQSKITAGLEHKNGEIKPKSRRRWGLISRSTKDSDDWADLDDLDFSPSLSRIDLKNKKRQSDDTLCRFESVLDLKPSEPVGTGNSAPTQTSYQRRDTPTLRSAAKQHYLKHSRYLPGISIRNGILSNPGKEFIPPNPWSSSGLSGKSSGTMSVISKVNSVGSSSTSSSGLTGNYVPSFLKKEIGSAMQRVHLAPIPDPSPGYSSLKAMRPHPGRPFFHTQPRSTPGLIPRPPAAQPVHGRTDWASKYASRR

[5] = biological target: Ribosomal protein S6 kinase alpha-6 (Homo sapiens, UniProt Q9UK32); experiment: Selectivity interaction (KinomeScan (DiscoverX)) EUB0000092b RPS6KA6; conditions: at 10 µM
Ribosomal protein S6 kinase alpha-6, sequence (Q9UK32 whole entry): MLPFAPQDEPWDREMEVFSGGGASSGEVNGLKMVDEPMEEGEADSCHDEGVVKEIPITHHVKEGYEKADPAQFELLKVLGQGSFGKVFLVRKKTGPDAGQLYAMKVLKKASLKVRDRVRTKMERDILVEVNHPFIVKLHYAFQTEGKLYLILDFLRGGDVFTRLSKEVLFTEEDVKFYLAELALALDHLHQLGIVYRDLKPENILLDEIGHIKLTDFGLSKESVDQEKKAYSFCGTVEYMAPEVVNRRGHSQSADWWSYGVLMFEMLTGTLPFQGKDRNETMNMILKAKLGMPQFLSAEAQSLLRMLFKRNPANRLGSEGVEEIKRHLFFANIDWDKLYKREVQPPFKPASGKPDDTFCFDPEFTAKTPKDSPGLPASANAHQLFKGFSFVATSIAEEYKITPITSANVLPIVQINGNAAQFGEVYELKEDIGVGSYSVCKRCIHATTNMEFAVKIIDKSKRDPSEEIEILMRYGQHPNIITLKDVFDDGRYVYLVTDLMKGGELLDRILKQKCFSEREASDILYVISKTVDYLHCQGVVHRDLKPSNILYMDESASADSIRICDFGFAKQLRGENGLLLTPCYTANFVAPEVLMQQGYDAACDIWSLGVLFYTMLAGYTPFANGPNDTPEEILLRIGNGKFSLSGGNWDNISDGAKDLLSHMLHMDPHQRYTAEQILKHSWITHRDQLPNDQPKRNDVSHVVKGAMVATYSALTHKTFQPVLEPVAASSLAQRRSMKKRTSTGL

[6] = biological target: T3, Serine/threonine-protein kinase 3 (Homo sapiens) (UniProt Q13188); experiment: Selectivity interaction (ActivX KiNativ screen (ex vivo kinase selectivity in human PBMCs)) EUB0001619a STK3; format: cell-based; conditions: PBMC, at 1 µM
T3 sequence (whole entry): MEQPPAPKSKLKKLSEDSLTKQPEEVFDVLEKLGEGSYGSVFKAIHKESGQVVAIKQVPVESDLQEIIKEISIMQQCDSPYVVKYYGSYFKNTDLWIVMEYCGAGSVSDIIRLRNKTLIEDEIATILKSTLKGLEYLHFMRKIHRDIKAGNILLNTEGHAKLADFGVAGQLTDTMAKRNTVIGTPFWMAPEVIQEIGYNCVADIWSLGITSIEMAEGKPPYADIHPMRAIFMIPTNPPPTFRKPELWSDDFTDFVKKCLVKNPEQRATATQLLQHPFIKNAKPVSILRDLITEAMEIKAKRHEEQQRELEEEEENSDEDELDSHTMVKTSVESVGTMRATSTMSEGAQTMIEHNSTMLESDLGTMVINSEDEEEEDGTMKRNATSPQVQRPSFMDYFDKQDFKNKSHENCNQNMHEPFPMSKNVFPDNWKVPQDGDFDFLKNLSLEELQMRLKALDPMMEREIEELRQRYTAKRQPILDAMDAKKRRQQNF

[7] = biological target: Protein arginine N-methyltransferase 7 (Homo sapiens, UniProt Q9NVM4); experiment: Selectivity interaction (Scintillation proximity assays) EUB0000255b PRMT7
Protein arginine N-methyltransferase 7, sequence (Q9NVM4 whole entry): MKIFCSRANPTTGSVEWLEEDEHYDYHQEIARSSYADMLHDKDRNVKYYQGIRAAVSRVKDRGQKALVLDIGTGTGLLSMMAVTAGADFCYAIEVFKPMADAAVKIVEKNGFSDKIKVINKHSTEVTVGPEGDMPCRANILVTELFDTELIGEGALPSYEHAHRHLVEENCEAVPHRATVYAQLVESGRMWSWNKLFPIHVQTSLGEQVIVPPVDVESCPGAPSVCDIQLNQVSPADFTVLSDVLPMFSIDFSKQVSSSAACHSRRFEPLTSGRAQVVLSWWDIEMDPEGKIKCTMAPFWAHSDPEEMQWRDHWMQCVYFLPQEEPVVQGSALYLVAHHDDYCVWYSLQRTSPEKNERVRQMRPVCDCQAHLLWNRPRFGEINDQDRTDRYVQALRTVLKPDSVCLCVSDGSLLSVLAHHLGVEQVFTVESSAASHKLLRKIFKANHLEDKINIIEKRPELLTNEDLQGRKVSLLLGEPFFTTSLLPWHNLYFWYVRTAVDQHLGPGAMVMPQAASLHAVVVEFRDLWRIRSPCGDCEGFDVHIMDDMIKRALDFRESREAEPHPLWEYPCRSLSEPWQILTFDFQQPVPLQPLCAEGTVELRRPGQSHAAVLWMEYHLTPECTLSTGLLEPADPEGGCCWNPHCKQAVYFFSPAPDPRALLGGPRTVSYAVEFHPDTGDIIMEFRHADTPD

[8] = biological target: T4, 5-hydroxytryptamine receptor 2C (Homo sapiens) (UniProt P28335); experiment: Selectivity interaction (Panel of kinases, GPCRs, ion channels and transporters (enzymatic assay)) EUB0000223bCl HTR2C
T4 sequence (whole entry): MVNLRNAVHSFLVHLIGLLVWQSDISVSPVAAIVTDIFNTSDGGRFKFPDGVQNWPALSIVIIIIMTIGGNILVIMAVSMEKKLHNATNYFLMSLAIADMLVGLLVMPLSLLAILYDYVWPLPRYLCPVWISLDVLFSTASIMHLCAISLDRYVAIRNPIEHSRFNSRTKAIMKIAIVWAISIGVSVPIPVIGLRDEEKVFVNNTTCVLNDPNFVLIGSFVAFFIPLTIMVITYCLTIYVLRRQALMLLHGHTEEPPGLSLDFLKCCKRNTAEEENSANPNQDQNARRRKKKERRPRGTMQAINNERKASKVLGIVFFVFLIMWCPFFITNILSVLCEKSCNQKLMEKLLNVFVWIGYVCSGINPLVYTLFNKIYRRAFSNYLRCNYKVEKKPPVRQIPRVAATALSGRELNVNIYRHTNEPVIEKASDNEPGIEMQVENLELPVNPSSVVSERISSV

Serine/threonine-protein kinase PAK 6 (Homo sapiens), sequence (Q9NQU5 whole entry, looked up): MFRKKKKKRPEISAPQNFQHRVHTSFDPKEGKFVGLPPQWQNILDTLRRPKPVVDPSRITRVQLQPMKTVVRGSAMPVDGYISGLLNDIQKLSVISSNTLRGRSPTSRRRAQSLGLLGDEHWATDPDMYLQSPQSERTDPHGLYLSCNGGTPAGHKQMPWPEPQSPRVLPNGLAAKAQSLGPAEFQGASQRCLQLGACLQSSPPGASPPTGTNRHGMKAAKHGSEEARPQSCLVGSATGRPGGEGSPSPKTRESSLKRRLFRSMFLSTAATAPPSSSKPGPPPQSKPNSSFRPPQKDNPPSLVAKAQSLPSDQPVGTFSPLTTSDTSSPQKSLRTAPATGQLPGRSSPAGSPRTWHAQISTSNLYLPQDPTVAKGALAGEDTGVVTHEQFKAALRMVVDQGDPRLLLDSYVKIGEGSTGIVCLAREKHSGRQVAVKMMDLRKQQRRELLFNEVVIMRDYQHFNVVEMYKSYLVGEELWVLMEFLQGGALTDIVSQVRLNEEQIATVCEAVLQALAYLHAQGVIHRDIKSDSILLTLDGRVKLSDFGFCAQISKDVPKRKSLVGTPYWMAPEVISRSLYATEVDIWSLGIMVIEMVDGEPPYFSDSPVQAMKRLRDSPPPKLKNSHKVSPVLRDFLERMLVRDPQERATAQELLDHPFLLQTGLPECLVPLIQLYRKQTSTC

CN(C)C/C=C/C(=O)Nc1ccc(C(=O)N2CCCC(Nc3ncc(Cl)c(-c4c[nH]c5ccccc45)n3)C2)cc1 (stereo not drawn)
% of control [1]: 87%
% of control [2]: 82%

CC[C@@H]1[C@H](F)C(=O)N[C@@H]1COc1nccc2cc(C(N)=O)c(OC)cc12 [ZIMLOVISERTIB]
% of inhibition [3]: -1.94%

Cc1cc(F)c(C(=O)Nc2cccc(-c3nncn3C(C)C)n2)cc1-n1cnc(C2CC2)c1
% of control [4]: 100%

CCC(=O)N1CCN(c2ccc(-n3c(=O)ccc4cnc5ccc(-c6cnc7ccccc7c6)cc5c43)cc2C(F)(F)F)CC1
% of control [5]: 66%

N#Cc1cccc(-c2c[nH]c3ncnc(N4CCOCC4)c23)c1
% of inhibition [6]: 69%

COCCN1CCC(c2cc(CN(C)C(=O)c3cccc(Oc4ccccc4)c3)ccn2)CC1
IC50 [7]: > 10 µM

COc1cc(C(=O)N2CC[C@@H](O)[C@@H](N)C2)cc2nc(-c3cc4ccccc4n3CC3CC3)n(C)c12
pXC50 [8]: < 4.4 M

From ChEMBL document CHEMBL5465560, “Selectivity Literature for EUbOPEN Chemogenomic Library” (2024)
